Values joined by “and” are separate entries in the source; they are usually repeats but may differ in a detail not shown here. Equal entries are not always repeated. Where two headings read alike, the source gives them in different places.
How the values were obtained:
Sigma-2 receptor (S2R) = Sigma-2 receptor (S2R) (Homo sapiens (Human), UniProt Q5BJF2); test: Sigma-2 receptor in-vitro binding assay
[1] = system: B104 rat neuroblastoma cells; test: BDNF release in-situ ELISA in B104 neuroblastoma cells; format: cell-based; settings: 5 days
Text: […]. Compound 4 alone had no effect on BDNF secretion—(1.5%). […]. Compound 4 alone had no effect on BDNF secretion (−1.5%). […].

[2] = system: female MeCP2 heterozygous (Rett) mice; settings: 30 mg/kg bid orally, 8 weeks of age
Procedure: Clasping is used to assess muscular strength in limb muscles. Hindlimb clasping is measured in mice held by the tail and gently lifted until the front paws just lift off the counter surface. The experimenter observes the legs and determines clasping or splaying of limbs. […] Data are mean±SEM, N-1 two-proportional tests.
(§1) Dosing commenced when mice were ˜5.5 weeks of age and continued through the end of behavioral testing. Behavioral testing was done at 8 and 12 weeks of age.
Mice were held by the tail and gently lifted until the front paws just lift off the counter surface. The experimenter observed the legs and determined clasping or splaying of limbs. After testing, animals were placed back into the test or home cage. Percent clasping of the hindlimbs was determined and reported.

[3] = system: B6.129P2-Mecp2tm2Bird/J (Rett-KO) male mice; settings: 30 mg/kg bid
Procedure: The room temperature was maintained between 20 and 23° C. with a relative humidity maintained around 50%. Chow and water were provided ad libitum for the duration of the study.

[4] = system: B104 rat neuroblastoma cells; settings: in-situ ELISA, Geva et al. 2016; cited from earlier work
[5] = system: BDNF transcripts (BDNF I, IV, VI, IX) mRNA; settings: whole brain, Rett mice
Text: FIGS. 6A-6C, 7, 8, 9, 10: These figures display mRNA levels of BDNF transcripts measured in the brains of female heterozygous MeCP2 (Rett) mice. […] The relative quantity of the gene target is normalized to the geometric means of the relative quantity of the housekeeping genes APT5B, GAPDH and RPK12A. Relative level of the target gene was then normalized to the WT vehicle group. All data are represented as the mean±SEM. ANOVA followed by Tukey's multiple comparisons test.
Mice were euthanized via cervical dislocation and decapitated. From 10 mice/treatment group, whole brains were collected, weighed, and then frozen on dry ice. Samples were stored at −80° C. until analysis of brain-derived neurotrophic factor (BDNF).
Tissues (whole brain) were homogenized, and RNA extracted and quantified. An aliquote was reverse-transcribed into cDNA.
Up to three independent RT reactions were performed for each RNA sample. qPCR was performed using the primers detailed in Table 5 below.
Whole brain cDNA prepared from a pooled sample of WT vehicle treated animals was used as calibrator (calibrator is diluted same as sample cDNA) to normalized plate-to-plate variations. Each cDNA sample (diluted 1:10) was assayed in triplicates and the Ct values averaged.
Relative quantity of the PCR product (relative to the calibrator) was calculated as follows:
Relative Quantity of Target gene=(PCR EfficiencyTarget)^(Ct caltbrator-Ctsample)
Geometric mean=(relative quantity of housekeeping gene1*relative quantity of housekeeping gene2*relative quantity of housekeeping gene3)^(1/3)
Relative Quantity of Target gene Geometric mean of housekeeping genes
Relative level of target gene was then normalized to the WT vehicle group.

[6] = system: Rett disease gene expression signature
[7] = system: female MeCP2 heterozygous (Rett) mice; settings: for Recovery of overall gait features: female Rett mice, 30 mg/kg bid
Procedure: FIG. 1: Feature recovery as a measure of the therapeutic drug effect on Mecp2-KO Rett Syndrome model mice. This figure is intended to provide an explanation as to how the data is analyzed in FIGS. 4, 5 and 12.
Left: “the cloud graph”: Visualization of the control−disease−(disease+treatment) groups relationship in the optimal discrimination feature space.
The drug treatment effect can be represented as a combination of two components: one along the direction of the “recovery line” (the line connecting the centers of the control (WT) and disease (MECP2-KO) clouds, shown as a thick arrow to the left with diagonal lines on top), and the component orthogonal to (“pointing away” from) that direction shown as an arrow pointing up with parallel lines within. The relative length of the “recovery” arrow with respect to the control-disease distance can then be interpreted as the “recovery due to the drug”, whereas the relative length of the “other effect” (orthogonal with parallel lines inside) arrow represents feature changes that move the disease mice+treatment group away from the control group. The summary of this analysis can be effectively represented as a bar graph (right pane in FIG. 1A) which is typically referred to as the recovery signature.
Right: “the recovery signature” graph: The bar graph represents the summary of the recovery analysis. The overlap and discrimination probability sum up to 100%. The recovery ranges from […]. The lower the overlap, the better the quality of the disease model, and the higher the discrimination power between the WT and Rett mice groups. The “other behavioral effect” is in the same relative units (relative to the length of the distance between the WT and Rett mice groups).
The NeuroCube® system is a platform that employs computer vision to detect changes in gait geometry and gait dynamics in rodent models of neurological disorders, pain & neuropathies. This platform is unique for gait testing for the following reasons: • It is completely automated and thus removes any bias or subjectivity • This system captures both gait geometry and gait dynamics (stance, swing, propulsion, etc.)
Mice were placed in the NeuroCube for a 5 min test. The most dominant of the features collected that define the disease phenotype (symptom descriptors) was identified and ranked. Complex bioinformatic algorithms were employed to calculate the discrimination probability between the WT and the Rett HET MeCP2 mice and detect a test compound's ability to reverse the disease phenotype. Discriminations between mutant and wild type was calculated as well as the recovery of disease features in Rett HET MeCP2 mice treated with the test compound.
The output of NeuroCube is a set of dozens of behavioral features that are submitted for analysis with machine learning techniques used in bioinformatics. Many of these features are correlated (e.g. rearing counts and supported rearing counts). Therefore, PGI forms statistically independent combinations of the original features (further referred to as de-correlated features) that discriminate between the two groups more effectively.
Each de-correlated feature extracts information from the whole cluster of the original features, so the new feature space has lower dimensionality. Next, PGI applies a proprietary feature ranking algorithm to score each feature's discrimination power (ability to separate the two groups, e.g. control and disease).
Ranking is an important part of the analyses because it weighs each feature change by its relevance: if there is a significant change in some irrelevant feature measured for a particular phenotype, the low rank of this feature will automatically reduce the effect of such change in the analyses, so there is no need to resort to the conventional “feature selection” approach and discard information buried in the less informative features.

[8] = system: female MeCP2 heterozygous (Rett) mice; settings: 3 mg/kg bid
Procedure: as §1
Mice were placed in the PPI chambers (Med Associates) for a 5 min session of white noise (70 dB) habituation.
The inter-trial interval was variable with an average of 15 s (range from 10 to 20 s).

[9] = system: cultured cortical neurons from the HD YAC128 mouse model; settings: Smith-Dijak et al., 2019; cited from earlier work
early HD patients = settings: 45 mg bid
Text: Change from baseline in UHDRS TMS gait balances week 26 (A) and Week 52(B) in early HD (baseline TFC 7-13) patients in the PRIDE-HD study.
Change from baseline in UHDRS TMS gait and balances scale at weeks 26 and 52 in early HD (baseline TFC 7-13).

Chain of Sigma-2 receptor (S2R) (Q5BJF2 whole entry, species assumed): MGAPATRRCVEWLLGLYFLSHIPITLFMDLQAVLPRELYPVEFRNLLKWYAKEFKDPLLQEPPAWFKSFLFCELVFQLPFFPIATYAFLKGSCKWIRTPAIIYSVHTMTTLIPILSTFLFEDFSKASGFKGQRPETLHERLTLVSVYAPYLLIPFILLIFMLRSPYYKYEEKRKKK

Structure (SMILES): CCCN1CCC(O)(c2cccc(S(C)(=O)=O)c2)CC1 [Compound 1]
- S1R fold selectivity (S2R/S1R) (Sigma-2 receptor (S2R)): >270 fold
- Increase in BDNF release vs untreated control ([1]; Compound 1 alone 1 μM): 12.5%

Structure (SMILES): CCCN1CCC(c2cccc(S(C)(=O)=O)c2)CC1 [Pridopidine, 4-[3-(methylsulfonyl)phenyl]-1-propyl-piperidine]
- Percent clasping of the hindlimbs [2]: zero
- Percent clasping of the hindlimbs ([2]; listed as pridopidine): 0%
- Recovery of gait deficits ([3]; 6 weeks of age): 44%
- Recovery of gait deficits ([3]; 7 weeks of age): 100%
- BDNF secretion in rat neuroblastoma cells [4]: dose dependent increase
- Increase of BDNF IV mRNA levels ([5]; 3 mg/kg bid and 30 mg/kg bid): ~30%
- Effect on mRNA expression of housekeeping genes ATP5B, GAPDH, RPL13A ([5]; 3 and 30 mg/kg bid): does not affect
- Effect on BDNF I mRNA levels ([5]; 3 or 30 mg/kg bid): does not affect
- Effect on BDNF VI mRNA levels ([5]; 3 or 30 mg/kg bid): does not affect
- NES (normalized enrichment score), genes downstream to BDNF ([6]; 30 mg/kg BID, BDNF-TrkB pathway genes): 1.752
- NES (normalized enrichment score) ([6]; cortex, 3 mg/kg BID, geneset Prido Down / Rett Up): 1.356
- NES (normalized enrichment score) ([6]; cortex, 3 mg/kg BID, geneset Prido Up / Rett Down): 1.477
- NES (normalized enrichment score) ([6]; cortex, 30 mg/kg BID, geneset Prido Down / Rett Up): 2.081
- NES (normalized enrichment score) ([6]; cortex, 30 mg/kg BID, geneset Prido Up / Rett Down): −2.631
- Reversal of Rett gene expression pattern ([6]; striatum and cortex of Rett mice, GSEA): strongly reverses
- NES (normalized enrichment score) ([6]; striatum, 3 mg/kg BID, geneset Down with Prido / Up in Rett): 2.18
- NES (normalized enrichment score) ([6]; striatum, 3 mg/kg BID, geneset Up with Prido / Down in Rett): −2.50
- NES (normalized enrichment score) ([6]; striatum, 30 mg/kg BID, geneset Up with Prido / Down in Rett): −1.77
- % Recovery 3 mg/kg BID, Body Motion ([7]; 8 weeks, 3 mg/kg BID): 81%,
- % Recovery 3 mg/kg BID, Gait ([7]; 8 weeks, 3 mg/kg BID): 38%,
- % Recovery 30 mg/kg BID, Body Motion ([7]; 8 weeks, 30 mg/kg BID): 84%,
- % Recovery 30 mg/kg BID, Gait ([7]; 8 weeks, 30 mg/kg BID): 71%,
- % Recovery 3 mg/kg BID, Body Motion ([7]; 12 weeks, 3 mg/kg BID): 65%,
- % Recovery 3 mg/kg BID, Gait ([7]; 12 weeks, 3 mg/kg BID): 60%,
- % Recovery 3 mg/kg BID, Paw Positioning ([7]; 12 weeks, 3 mg/kg BID): 35%,
- % Recovery 30 mg/kg BID, Body Motion ([7]; 12 weeks, 30 mg/kg BID): 59%,
- % Recovery 30 mg/kg BID, Gait ([7]; 12 weeks, 30 mg/kg BID): 100%,
- % Recovery 30 mg/kg BID, Paw Positioning ([7]; 12 weeks, 30 mg/kg BID): 52%,
- Recovery of overall gait features ([7]; 8 weeks of age): 45%
- Recovery of overall gait features ([7]; 12 weeks of age): 55%
- Rescue effect on mean startle response ([8]; 8 weeks of age): ~40%
- Rescue effect on mean startle response ([8]; 12 weeks of age): ~50%
- Impaired homeostatic synaptic plasticity (HSP) [9]: restores impaired HSP
- Increase in BDNF release vs untreated control ([1]; pridopidine alone 0.001 μM): 13.6% and 13.5%
- Increase in BDNF release vs untreated control ([1]; pridopidine alone 0.005 μM): 26%
- Increase in BDNF release vs untreated control ([1]; pridopidine alone 0.01 μM ([…] in FIG. 17 legend)): 3.4%
- UHDRS TMS gait and balance, Δ from placebo (early HD patients; HD1 (TFC 11-13), Week 26): −0.31
- UHDRS TMS gait and balance, Δ from placebo (early HD patients; HD1 (TFC 11-13), Week 52): −0.94
- UHDRS TMS gait and balance, Δ from placebo (early HD patients; HD2 (TFC 7-10), Week 26): −0.53
- UHDRS TMS gait and balance, Δ from placebo (early HD patients; HD2 (TFC 7-10), Week 52): −0.18
- UHDRS TMS gait and balance, Δ from placebo (early HD patients; early HD (TFC 7-13), Week 26): −0.48
- UHDRS TMS gait and balance, Δ from placebo (early HD patients; early HD (TFC 7-13), Week 52): −0.41

Structure (SMILES): CCCN1CC[C@@H](c2cccc(S(C)(=O)=O)c2)[C@@H](O)C1 [Compound 4]
- S1R fold selectivity (S2R/S1R) (Sigma-2 receptor (S2R)): >35 fold

Source: patent US20230414596A1 (PRILENIA NEUROTHERAPEUTICS LTD., priority 2020, published 2023)
